The experiment concerns the target T1, M. smegmatis RpsA (Mycolicibacterium smegmatis, UniProt A0QYY6).
T1 sequence (A0QYY6 1-479): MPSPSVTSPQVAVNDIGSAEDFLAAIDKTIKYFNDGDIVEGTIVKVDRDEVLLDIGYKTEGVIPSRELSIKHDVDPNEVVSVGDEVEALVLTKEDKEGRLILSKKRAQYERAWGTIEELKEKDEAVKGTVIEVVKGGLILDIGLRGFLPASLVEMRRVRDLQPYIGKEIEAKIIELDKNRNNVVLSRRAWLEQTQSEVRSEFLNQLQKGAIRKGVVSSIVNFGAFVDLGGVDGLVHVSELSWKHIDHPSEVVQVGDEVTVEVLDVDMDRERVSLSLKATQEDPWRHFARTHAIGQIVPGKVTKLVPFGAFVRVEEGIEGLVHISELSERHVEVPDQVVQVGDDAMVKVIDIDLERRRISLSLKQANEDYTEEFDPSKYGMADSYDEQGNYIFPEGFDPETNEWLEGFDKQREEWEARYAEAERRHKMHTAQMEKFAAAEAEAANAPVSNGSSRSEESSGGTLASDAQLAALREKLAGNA
The experiment is described as follows: isothermal titration calorimetry. The experiment is classed as binding. A general note: In ITC the heat of successive injections is recorded.

For the compound `O=C(O)c1cnccn1` [POA, 2-pyrazinecarboxylic acid], the “weak binding by ITC” value is “RpsA from naturally PZA-resistant M. smegmatis bound to POA only very weakly”.
